Measurements taken from PubChem BioAssay (NCI).
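1) Cells in 96-well plates. 2) Compound, 48 h, 5 concentrations. 3) Linear interpolation between surrounding doses. 4) Unreached endpoint = highest concentration. TGI: total growth inhibition.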

Experiments:
Experiment in all cases: NCI anticancer screen, dose series, 48 h
BT-549 breast = test system: BT-549 breast
HT29 colon = test system: HT29 colon
M14 melanoma = test system: M14 melanoma
MDA-MB-231 breast = test system: MDA-MB-231 breast
MDA-N = test system: MDA-N
OVCAR-3 ovarian = test system: OVCAR-3 ovarian
OVCAR-4 ovarian = test system: OVCAR-4 ovarian
OVCAR-5 ovarian = test system: OVCAR-5 ovarian
PC-3 prostate = test system: PC-3 prostate
RPMI-8226 leukemia = test system: RPMI-8226 leukemia
SF-268 CNS = test system: SF-268 CNS
SK-MEL-28 melanoma = test system: SK-MEL-28 melanoma
SNB-19 CNS = test system: SNB-19 CNS
SR leukemia = test system: SR leukemia
SW-620 colon = test system: SW-620 colon
HL-60(TB) leukemia = test system: HL-60(TB) leukemia

| SMILES | TGI (BT-549 breast) [µM] | TGI (HT29 colon) [µM] | TGI (M14 melanoma) [µM] | TGI (MDA-MB-231 breast) [µM] | TGI (MDA-N) [µM] | TGI (OVCAR-3 ovarian) [µM] | TGI (OVCAR-4 ovarian) [µM] | TGI (OVCAR-5 ovarian) [µM] | TGI (PC-3 prostate) [µM] | TGI (RPMI-8226 leukemia) [µM] | TGI (SF-268 CNS) [µM] | TGI (SK-MEL-28 melanoma) [µM] | TGI (SNB-19 CNS) [µM] | TGI (SR leukemia) [µM] | TGI (SW-620 colon) [µM] | TGI (HL-60(TB) leukemia) [µM] |
| --- | --- | --- | --- | --- | --- | --- | --- | --- | --- | --- | --- | --- | --- | --- | --- | --- |
| COc1ccc(OC)c(CNc2ccc(O)c(C(=O)NCCc3ccc(F)cc3)c2)c1 | 73.6 | 47.5 | 26.8 | 21.7 | 23 | 28.8 | 66.2 | 64.9 | 32.1 | 15.4 | 29.1 | 27.7 | 54.1 | 12.1 | > 100 |  |
| N#CC1N(C(=O)c2ccc(F)cc2)c2ccccc2N1C(=O)c1ccc(F)cc1 | 77.3 | > 100 | > 100 | > 100 | > 100 | > 100 | > 100 | > 100 | > 100 | 75.4 | > 100 | > 100 | > 100 | > 100 | > 100 | > 100 |
| c1ccc(C(=NNc2nc3ccccc3[nH]2)c2ccccn2)nc1 | 97.9 | 12.1 | 1.84 | > 53.6 | > 100 | > 100 | > 100 | 5.18 | 5.43 | 1.02 | > 55.3 | > 100 | > 100 | 0.271 | > 100 |  |
| C1OCN2c3nonc3N3COCN4c5nonc5N1C2C43 (stereo unspecified) | > 100 | > 100 | > 100 | > 100 | > 100 | > 100 | > 100 | > 100 | > 100 | > 100 | > 100 | > 100 | > 100 | > 100 | > 100 | > 100 |
| Cc1ccc(S(=O)(=Nc2ccccc2)C(C(C)C)C(C)(C)Cl)cc1 (stereo unspecified) | > 50 | > 50 | > 50 | > 50 | > 50 | > 50 | > 50 | > 50 | > 50 | > 50 | > 50 |  | > 50 | 49.7 | > 50 | 22 |
| CC(C)(C)OC(=O)NC(CCCCNC(=O)OCc1ccccc1)C(=O)NC(CCCCNC(=O)OCc1ccccc1)C(=O)ON1C(=O)CCC1=O (stereo unspecified) | > 100 | > 100 | > 100 | > 100 | > 100 |  |  | > 100 | > 100 | > 100 |  | > 100 | > 100 | > 100 | > 100 | > 100 |
| CC(=O)Oc1ccc(OC(Oc2ccccc2)c2ccccc2)cc1 (stereo unspecified) | 68 | 87 | 32.1 | 48.8 | 42.2 | 49.5 | > 100 | > 100 | > 100 |  | > 100 | 69 | 77.5 | 54.5 | > 100 | 41.8 |
| CCCCCC(/C=C/[C@@H]1CC(=O)C[C@H]1O[Si](C)(C)C(C)(C)C)OCOCCOC (stereo partly specified) | 11.7 | 10.1 | 19.5 | 14.7 | 9.44 | 11.3 | 26.3 | 28.8 | 14.1 | 6.42 | 10.5 | 10.5 | 12.9 | 6.37 | > 28.1 | > 100 |
